From patent US10442803B2, “Tricyclic heterocycles as bet protein inhibitors” (Incyte Corporation, priority 2013, dated 2019)
Structures can show the parent of a compound that is named as a salt.

System: KMS.12.BM cells
Assay: KMS.12.BM cell viability assay
Assay type: cell-based
Settings: 72 h; KMS.12.BM human myeloma cells, 3 days, Cell Titer-GLO ATP quantitation; read-out: KMS cellular IC50
Protocol: KMS.12.BM cell line (human myeloma) was purchased from JCRB (Osaka, Japan) and maintained in RPMI with 10% FBS culture medium. To measure the cytotoxic activity of the compounds through ATP quantitation, the KMS.12.BM cells are plated in the RPMI culture medium at 5000 cells/well/per 100 μL into a 96-well polystyrene clear black tissue culture plate (Greiner-bio-one through VWR, NJ), in the presence or absence of a concentration range of test compounds. After 3 days, […] Cell Titer-GLO Luminescent (Promega, Madison, Wis.) cell culture agent is added to each well for 10 minutes at room temperature to stabilize the luminescent signal. This determines the number of viable cells in culture based on quantitation of the ATP present, which signals the presence of metabolically active cells. Luminescence is measured with the Top Count 384 (Packard Bioscience through Perkin Elmer, Boston, Mass.).
IC50 data for the Examples is presented in Table 4 as determined by Assay B1.

| SMILES | IC50 |
| --- | --- |
| Cc1nnc2ccc3c(cc(-c4ccn(C5COC5)n4)n3Cc3cccc(Cl)c3)n12 [Example 177, 6-(3-Chlorobenzyl)-1-methyl-7-(1-oxetan-3-yl-1H-pyrazol-3-yl)-6H-pyrrolo[2,3-e][1,2,4]triazolo[4,3-a]pyridine trifluoroacetate salt] | ≤ 1000 nM |
| Cc1nnc2ccc3c(cc(C(=O)NCCCO)n3Cc3cccc(Cl)c3)n12 [Example 127, 6-(3-Chlorobenzyl)-N-(3-hydroxypropyl)-1-methyl-6H-pyrrolo[2,3-e][1,2,4]triazolo[4,3-a]pyridine-7-carboxamide trifluoroacetate salt] | ≤ 1000 nM |
| Cc1nnc2ccc3c(cc(-c4c[nH]cn4)n3Cc3ccccc3)n12 [Example 74, 6-benzyl-7-(1H-imidazol-4-yl)-1-methyl-6H-pyrrolo[2,3-e][1,2,4]triazolo[4,3-a]pyridine] | ≤ 1000 nM |
| Cc1cc2c(ccc3nnc(C)n32)n1Cc1cccc(C(N)=O)c1 [Example 30, 3-((1,7-dimethyl-6H-pyrrolo[2,3-e][1,2,4]triazolo[4,3-a]pyridin-6-yl)methyl)benzamide trifluoroacetate salt] | 1000 to 10000 nM |
| Cc1nnc2ccc3c(cc(CO)n3Cc3ccccc3)n12 [Example 56, (6-benzyl-1-methyl-6H-pyrrolo[2,3-e][1,2,4]triazolo[4,3-a]pyridin-7-yl)methanol] | 1000 to 10000 nM |
| Cc1nnc2ccc3c(cc(-c4cn(CCN5CCOCC5)cn4)n3Cc3ccccc3)n12 [Example 75, 6-benzyl-1-methyl-7-[1-(2-morpholin-4-ylethyl)-1H-imidazol-4-yl]-6H-pyrrolo[2,3-e][1,2,4]triazolo[4,3-a]pyridine] | ≤ 1000 nM |
| Cc1cc2c(ccc3nnc(C)n32)n1Cc1cccc(CNCCO)c1 [Example 36, 2-({3-[(1,7-dimethyl-6H-pyrrolo[2,3-e][1,2,4]triazolo[4,3-a]pyridin-6-yl)methyl]benzyl}amino)ethanol] | ≤ 1000 nM |
| CCn1ccc(-c2cc3c(ccc4nnc(C)n43)n2Cc2cc(Cl)cc(CN3CCCC3)c2)n1 [Example 189, 6-(3-Chloro-5-(pyrrolidin-1-ylmethyl)benzyl)-7-(1-ethyl-1H-pyrazol-3-yl)-1-methyl-6H-pyrrolo[2,3-e][1,2,4]triazolo[4,3-a]pyridine tris(trifluoroacetate) salt] | ≤ 1000 nM |
| Cc1nnc2ccc3c(cc(-c4ccn(C)n4)n3Cc3cc(Cl)cc(CN(C)C)c3)n12 [Example 191, 1-(3-Chloro-5-{[1-methyl-7-(1-methyl-1H-pyrazol-3-yl)-6H-pyrrolo[2,3-e][1,2,4]triazolo[4,3-a]pyridin-6-yl]methyl}phenyl)-N,N-dimethylmethanamine bis(trifluoroacetate) salt] | ≤ 1000 nM |
| Cc1cc2c(cc(O)c3nnc(C)n32)n1Cc1ccccc1 [Example 204, 6-Benzyl-1,7-dimethyl-6H-pyrrolo[2,3-e][1,2,4]triazolo[4,3-a]pyridin-4-ol trifluoroacetate salt] | 1000 to 10000 nM |
| CNC(=O)Nc1cc2c(cc(C)n2Cc2cc(Cl)cc(CN3CCCC3)c2)n2c(C)nnc12 [Example 142, N-{6-[3-Chloro-5-(pyrrolidin-1-ylmethyl)benzyl]-1,7-dimethyl-6H-pyrrolo[2,3-e][1,2,4]triazolo[4,3-a]pyridin-4-yl}-N′-methylurea bis(trifluoroacetate) salt] | ≤ 1000 nM |
| Cc1nnc2ccc3c(cc(-c4ncco4)n3Cc3ccccc3)n12 [Example 143, 6-benzyl-1-methyl-7-(1,3-oxazol-2-yl)-6H-pyrrolo[2,3-e][1,2,4]triazolo[4,3-a]pyridine trifluoroacetate salt] | ≤ 1000 nM |
| Cc1cc2c(cc(N[C@H]3CCN(C)[C@H](C)C3)c3nnc(C)n32)n1Cc1ccccc1 (racemic) [Example 225, 6-Benzyl-N-[(2R,4S)-1,2-dimethylpiperidin-4-yl]-1,7-dimethyl-6H-pyrrolo[2,3-e][1,2,4]triazolo[4,3-a]pyridin-4-amine and 6-Benzyl-N-[(2S,4R)-1,2-dimethylpiperidin-4-yl]-1,7-dimethyl-6H-pyrrolo[2,3-e][1,2,4]triazolo[4,3-a]pyridin-4-amine] | ≤ 1000 nM |
| Cc1nnc2ccc3c(cc(-c4ccn(CCC(=O)NC(C)(C)C)n4)n3Cc3cccc(Cl)c3)n12 [Example 176, N-(tert-Butyl)-3-{3-[6-(3-chlorobenzyl)-1-methyl-6H-pyrrolo[2,3-e][1,2,4]triazolo[4,3-a]pyridin-7-yl]-1H-pyrazol-1-yl}propanamide trifluoroacetate salt] | ≤ 1000 nM |
| Cc1nnc2ccc3c(cc(-c4ccn(CCC#N)n4)n3Cc3ccccc3)n12 [Example 78, 3-[3-(6-benzyl-1-methyl-6H-pyrrolo[2,3-e][1,2,4]triazolo[4,3-a]pyridin-7-yl)-1H-pyrazol-1-yl]propanenitrile] | ≤ 1000 nM |
| Cc1cc2c(cc(NC(=O)C3CC3)c3nnc(C)n32)n1Cc1ccccc1 [Example 269, N-(6-Benzyl-1,7-dimethyl-6H-pyrrolo[2,3-e][1,2,4]triazolo[4,3-a]pyridin-4-yl)cyclopropanecarboxamide] | ≤ 1000 nM |

| SMILES | IC50 |
| --- | --- |
| Cc1cc2c(cc(NC(N)=O)c3nnc(C)n32)n1Cc1ccc(F)cc1F [Example 236, 1-(6-(2,4-Difluorobenzyl)-1,7-dimethyl-6H-pyrrolo[2,3-e][1,2,4]triazolo[4,3-a]pyridin-4-yl)urea] | ≤ 1000 nM |
| Cc1cc2c(cc(N[C@H]3CC[C@@H](N(C)C)CC3)c3nnc(C)n32)n1Cc1ccccc1 [Example 222, cis-N′-(6-Benzyl-1,7-dimethyl-6H-pyrrolo[2,3-e][1,2,4]triazolo[4,3-a]pyridin-4-yl)-N,N-dimethylcyclohexane-1,4-diamine] | 1000 to 10000 nM |
| Cc1cc2c(cc(N[C@H]3C[C@H](O)C3)c3nnc(C)n32)n1Cc1ccccc1 [Example 247, trans-3-(6-Benzyl-1,7-dimethyl-6H-pyrrolo[2,3-e][1,2,4]triazolo[4,3-a]pyridin-4-ylamino)cyclobutanol] | ≤ 1000 nM |
| CCNC(=O)Nc1cccc(Cn2c(C)cc3c2ccc2nnc(C)n23)c1 [Example 43, N-{3-[(1,7-dimethyl-6H-pyrrolo[2,3-e][1,2,4]triazolo[4,3-a]pyridin-6-yl)methyl]phenyl}-N′-ethylurea trifluoroacetate salt] | 1000 to 10000 nM |
| Cc1nnc2ccc3c(cc(-c4cn[nH]c4)n3Cc3ccccc3)n12 [Example 63, 6-benzyl-1-methyl-7-(1H-pyrazol-4-yl)-6H-pyrrolo[2,3-e][1,2,4]triazolo[4,3-a]pyridine] | ≤ 1000 nM |
| CCN1CC(n2ccc(-c3cc4c(ccc5nnc(C)n54)n3Cc3cccc(Cl)c3)n2)C1 [Example 160, 6-(3-Chlorobenzyl)-7-[1-(1-ethylazetidin-3-yl)-1H-pyrazol-3-yl]-1-methyl-6H-pyrrolo[2,3-e][1,2,4]triazolo[4,3-a]pyridine bis(trifluoroacetate) salt] | ≤ 1000 nM |
| Cc1nnc2ccc3c(cc(-c4ccn(C5CN(S(=O)(=O)N(C)C)C5)n4)n3Cc3cccc(Cl)c3)n12 [Example 161, 3-{3-[6-(3-Chlorobenzyl)-1-methyl-6H-pyrrolo[2,3-e][1,2,4]triazolo[4,3-a]pyridin-7-yl]-1H-pyrazol-1-yl}-N,N-dimethylazetidine-1-sulfonamide bis(trifluoroacetate) salt] | ≤ 1000 nM |
| CNCc1cccc(Cn2c(C)cc3c2ccc2nnc(C)n23)c1 [Example 41, 1-{3-[(1,7-dimethyl-6H-pyrrolo[2,3-e][1,2,4]triazolo[4,3-a]pyridin-6-yl)methyl]phenyl}-N-methylmethanamine] | ≤ 1000 nM |
| Cc1cc2c(ccc3nnc(C)n32)n1Cc1ccc2ccccc2n1 [Example 21, 1,7-dimethyl-6-(quinolin-2-ylmethyl)-6H-pyrrolo[2,3-e][1,2,4]triazolo[4,3-a]pyridine] | ≤ 1000 nM |
| Cc1cc2c(ccc3nnc(C)n32)n1Cc1cccc(F)c1 [Example 15, 6-(3-fluorobenzyl)-1,7-dimethyl-6H-pyrrolo[2,3-e][1,2,4]triazolo[4,3-a]pyridine] | ≤ 1000 nM |
| Cc1nnc2ccc3c(cc(-c4cccs4)n3Cc3ccccc3)n12 [Example 73, 6-benzyl-1-methyl-7-(2-thienyl)-6H-pyrrolo[2,3-e][1,2,4]triazolo[4,3-a]pyridine] | ≤ 1000 nM |
| CNC(=O)c1cc2c(ccc3nnc(C)n32)n1Cc1cc(Cl)cc(CN2CCC(F)(F)C2)c1 [Example 134, 6-{3-Chloro-5-[(3,3-difluoropyrrolidin-1-yl)methyl]benzyl}-N,1-dimethyl-6H-pyrrolo[2,3-e][1,2,4]triazolo[4,3-a]pyridine-7-carboxamide 2.4×(trifluoroacetate) salt] | ≤ 1000 nM |
| Cc1nnc2ccc3c(cc(-c4ccccn4)n3Cc3ccccc3)n12 [Example 68, 6-benzyl-1-methyl-7-pyridin-2-yl-6H-pyrrolo[2,3-e][1,2,4]triazolo[4,3-a]pyridine] | ≤ 1000 nM |
| Cc1cc2c(cc(NCCN3CCOCC3)c3nnc(C)n32)n1Cc1ccccc1 [Example 208, 6-Benzyl-1,7-dimethyl-N-(2-morpholin-4-ylethyl)-6H-pyrrolo[2,3-e][1,2,4]triazolo[4,3-a]pyridin-4-amine] | 1000 to 10000 nM |
| Cc1cc2c(cc(NC(N)=O)c3nnc(C)n32)n1Cc1ccc(F)cc1 [Example 239, 1-(6-(4-Fluorobenzyl)-1,7-dimethyl-6H-pyrrolo[2,3-e][1,2,4]triazolo[4,3-a]pyridin-4-yl)urea] | ≤ 1000 nM |
| Cc1nnc2ccc3c(cc(-c4ccn(CCC#N)n4)n3Cc3cccc(CN4CCC4)c3)n12 [Example 183, 3-(3-{6-[3-(Azetidin-1-ylmethyl)benzyl]-1-methyl-6H-pyrrolo[2,3-e][1,2,4]triazolo[4,3-a]pyridin-7-yl}-1H-pyrazol-1-yl)propanenitrile bis(trifluoroacetate) salt] | ≤ 1000 nM |
